According to patent US20070093392A1 (priority 2005, published 2007):

System: gerbils
Settings: in vivo

COc1cc(CNC(=O)CCCC/C=C/C(C)C)ccc1O [capsaicin]
Rodent repellent effect, overall: very effective rodent repellent
